Results taken from patent publication US20250275976A1, “Methods of Treating Neuroinflammatory Conditions” (Athira Pharma, Inc., priority 2022, published 2025).
“Also recorded” adds a separate entry of the source. Where two headings read alike, the source gives them in different places.

Experiments:
[1] = system: Rat primary cortical neuron cultures; test: Neuroprotection of rat primary cortical neurons against neurotoxic insults (Cell Titer-Glo viability); format: cell-based
Description: HGF/MET signaling activation is expected to protect cells, including neurons, from cell death. […] Hydrogen peroxide (H2O2) treatment produces toxic oxidative stress. Bacteria-derived lipopolysaccharide (LPS) treatment induces inflammatory cell death. Treatment with excess glutamate (Glut) produces excitotoxicity in neuron cultures. Treatment with 1-methyl-4-phenylpyridinium (MPP^+) causes cell death by inhibition of mitochondrial function.
Cells were then subjected to individual conditional insults for 24 hours at the following concentrations: H2O2 at 1 uM, LPS at 1 uM, glutamate at 25 uM, or MPP+ at 500 uM. All treatments contained recombinant human HGF (R&D Systems) at a concentration of 5 ng/ml. MK-801 (Dizocilpine) is a pore blocker of the N-Methyl-D-aspartate (NMDA) receptor, a glutamate receptor, and was used as a positive control.
Data was normalized to DMSO+HGF control set at 100% cell viability.
Data are reported as statistical significance vs. insult control, with NS=not significant, +=p<0.05, ++=p<0.01, and +++=p<0.001.

[2] = system: Rat primary cortical neuron cultures; conditions: LPS 24 h
Description: To assess the neuroprotective effect of compound treatment against inflammatory insult, primary cultured cortical neurons were subjected to lipopolysaccharide (LPS) treatment for 24h along with various compound doses of compounds of Formula (I) or Compound A19. […] Rat primary cortical neuron cultures were grown at 37° C., 5% C02 in Complete Neurobasal Medium supplemented with B27/GDNF/BDNF containing 10% FBS until maturity. 25 μl of culture volume were seeded in a 384-well plate at 5,000 cells/well, and treated with 1 μM, 100 nM, 10 nM, 1 nM, or 0.1 nM of test compound for 15 minutes. Cells were then subjected to 1 μM LPS challenge for 24 hours. Luminescence measurements to assess relative levels of ATP were performed on an Envision plate reader (Perkin Elmer). Data for DMSO control were set to 100% cell viability, and each group (n=4) were averaged and presented as mean±SEM.

[3] = system: male CD-1 mice; test: T-maze spontaneous alternation, LPS-induced cognitive deficit; format: in vivo, mouse; conditions: for Spontaneous alternation (%) Mean: LPS 250 μg/kg i.p.; for Recovery (%): saline/vehicle = 100%, LPS/vehicle = 0%
Description: Encephalitis refers to inflammation of the brain that may result in brain swelling fever, headache, confusion, and seizures. The source of neuroinflammation can vary widely, including due to viral, bacterial, parasitic, or fungal infection or due to autoimmune diseases. Lipopolysaccharide (LPS) is a bacterial endotoxin that induces an intense neuroinflammatory reaction and has been associated with cognitive decline. The ability of Compound A19 to reverse cognitive decline induced by LPS in a mouse model of encephalitis was studied using a T-maze assay. In a separate substantially similar assay, Compounds 1a and 5a were also assessed.
Spontaneous and continuous alternation is the innate tendency of rodents to alternate free choices in a T-maze (T-CAT) over a series of successive runs. This sequential procedure relies on working memory and is sensitive to various pharmacological manipulations affecting memory processes. The present studies were conducted to evaluate the abilities of Compound A19, Compound 1a and Compound 5a to reverse LPS-induced cognitive deficit in the T-maze assay.
Compound A19 was dissolved in 0.9% NaCl (saline) and vortexed periodically until complete dissolution and with the pH adjusted between 7.4 and 7.8. Compound A19 was used in concentrations of 0.125, 0.1, 0.05, 0.025 and 0.0125 mg/ml which when given in a volume of 10 ml/kg result in doses of 1.25, 1, 0.5, 0.25 and 0.125 mg/kg, respectively. Compound 1a was dissolved at 160 mg/ml in 100% DMSO and vortexed until complete dissolution. Then the above stock solution was diluted in 20% PEG-400 and 78% 0.9% NaCl, whereby the stock solution comprised 2% of the final solution. Compound 1a was used in concentrations of 0.05, 0.2, 0.8, 1.6 and 3.2 mg/ml which when given in a volume of 10 ml/kg result in doses of 0.5, 2, 8, 16 and 32 mg/kg, respectively. Compound 5a was dissolved at 100 mg/ml in 100% DMSO and vortexed until complete dissolution. Then the above stock solution was diluted in 20% PEG-400 and 78% 0.9% NaCl, whereby the stock solution comprised 2% of the final solution. Compound 5a was used in concentrations of 0.125, 0.25, 0.5, 1 and 2 mg/ml which when given in a volume of 10 ml/kg result in doses of 1.25, 2.5, 5, 10 and 20 mg/kg, respectively.
Memantine was dissolved in saline. Memantine was used in concentration of 0.1 and 0.01 mg/ml, which when given in a volume of 10 ml/kg result in a dose of 1 and 0.1 mg/kg, respectively. Memantine is approved for symptomatic treatment of Alzheimer's disease was used as a reference compound.
LPS was dissolved in saline and prepared at a concentration of 0.0125 mg/ml and given intraperitoneally (i.p.) at a dosage volume of 20 ml/kg to yield a dose of 0.25 mg/kg ([…]).
Four to five weeks old male CD-1 mice (Janvier; Le Genest St Isle - France) were used for the study.
LPS was injected i.p. 2 weeks prior the T-maze trial. Compound 1a was tested at doses of 0.5, 2, 8, 16, and 32 mg/kg administered orally (p.o.) for 14 days with last treatment given 60 min before the T-maze trial. Compound 5a was tested at the doses of 1.25, 2.5, 5, 10, and 20 mg/kg administered orally (p.o.) for 14 days with last treatment given 60 min before the T-maze trial. LPS was injected i.p. 2 weeks prior the T-maze trial.
The T-maze apparatus was made of gray Plexiglas with a main stem (55 cm long×10 cm wide×20 cm high) and two arms (30 cm long×10 cm wide×20 cm high) positioned at a 90-degree angle relative to the main stem. A start box (15 cm long×10 cm wide) was separated from the main stem by a guillotine door. Horizontal doors were also provided to close specific arms during the force choice alternation task.
The experimental protocol consisted of a single session, which started with one “forced-choice” trial, followed by 14 “free-choice” trials. In the “forced-choice” trial, the animal was confined 5 seconds in the start arm and was then released while either the left or right goal arm was blocked by a horizontal door. […]

In the case of CCC(C)CN1CC2N(C(=O)c3ccc(C(F)(F)F)cc3)CCC(=O)N2[C@@H](C)C1=O (some centres unmarked) [Compound 1a], the “Statistical significance vs. insult control (cell viability)” value ([1]; Glutamate (25 uM) insult, [Compound 1a] 0.1 nM + HGF (5 ng/ml)) is reported as “+++ (+++=p<0.001)”, the “Statistical significance vs. insult control (cell viability)” value ([1]; Glutamate (25 uM) insult, [Compound 1a] 1 nM + HGF (5 ng/ml)) is reported as “+++ (+++=p<0.001)” and the “Statistical significance vs. insult control (cell viability)” value ([1]; Glutamate (25 uM) insult, [Compound 1a] 100 nM (second column headed 100 nM) + HGF (5 ng/ml)) is reported as “+++ (+++=p<0.001)”. For the same compound, the “Statistical significance vs. insult control (cell viability)” value ([1]; Glutamate (25 uM) insult, [Compound 1a] 100 nM + HGF (5 ng/ml)) was “+++ (+++=p<0.001)”, the “Statistical significance vs. insult control (cell viability)” value ([1]; Glutamate (25 uM) insult, [Compound 1a] 1 uM + HGF (5 ng/ml)) was “+++ (+++=p<0.001)” and the “Statistical significance vs. insult control (cell viability)” value ([1]; H2O2 (1 uM) insult, [Compound 1a] 0.1 nM + HGF (5 ng/ml)) was “+++ (+++=p<0.001)”. The “Statistical significance vs. insult control (cell viability)” value ([1]; H2O2 (1 uM) insult, [Compound 1a] 1 nM + HGF (5 ng/ml)) was “+++ (+++=p<0.001)”, the “Statistical significance vs. insult control (cell viability)” value ([1]; H2O2 (1 uM) insult, [Compound 1a] 100 nM (second column headed 100 nM) + HGF (5 ng/ml)) was “+++ (+++=p<0.001)” and the “Statistical significance vs. insult control (cell viability)” value ([1]; H2O2 (1 uM) insult, [Compound 1a] 100 nM + HGF (5 ng/ml)) was “+++ (+++=p<0.001)”. For the same compound, the “Statistical significance vs. insult control (cell viability)” value ([1]; H2O2 (1 uM) insult, [Compound 1a] 1 uM + HGF (5 ng/ml)) was “+++ (+++=p<0.001)”, the “Neuroprotection against the cohort of insults (result in words)” value ([1]; H2O2, glutamate, LPS, MPP+, broad range of concentrations) was “effective neuroprotective treatment at a broad range of concentrations against the entire cohort of insults tested” and the “Statistical significance vs. insult control (cell viability)” value ([1]; LPS (1 uM) insult, [Compound 1a] 0.1 nM + HGF (5 ng/ml)) was “+++ (+++=p<0.001)”. The “Statistical significance vs. insult control (cell viability)” value ([1]; LPS (1 uM) insult, [Compound 1a] 100 nM (second column headed 100 nM) + HGF (5 ng/ml)) was “+++ (+++=p<0.001)”, the “Statistical significance vs. insult control (cell viability)” value ([1]; LPS (1 uM) insult, [Compound 1a] 100 nM + HGF (5 ng/ml)) was “+++ (+++=p<0.001)” and the “Statistical significance vs. insult control (cell viability)” value ([1]; LPS (1 uM) insult, [Compound 1a] 1 uM + HGF (5 ng/ml)) was “+++ (+++=p<0.001)”. The “Statistical significance vs. insult control (cell viability)” value ([1]; MPP+ (500 uM) insult, [Compound 1a] 0.1 nM + HGF (5 ng/ml)) was “+++ (+++=p<0.001)”, the “Statistical significance vs. insult control (cell viability)” value ([1]; MPP+ (500 uM) insult, [Compound 1a] 1 nM + HGF (5 ng/ml)) was “+++ (+++=p<0.001)” and the “Statistical significance vs. insult control (cell viability)” value ([1]; MPP+ (500 uM) insult, [Compound 1a] 100 nM (second column headed 100 nM) + HGF (5 ng/ml)) was “+++ (+++=p<0.001)”. The “Statistical significance vs. insult control (cell viability)” value ([1]; MPP+ (500 uM) insult, [Compound 1a] 100 nM + HGF (5 ng/ml)) was “+++ (+++=p<0.001)”, the “Statistical significance vs. insult control (cell viability)” value ([1]; MPP+ (500 uM) insult, [Compound 1a] 1 uM + HGF (5 ng/ml)) was “+++ (+++=p<0.001)” and the “Significance of neuroprotection vs 1 uM LPS” value (“Significance … vs 1 uM LPS” below) ([2]; dose 0.1 nM) was “+++ (+++ indicates p<0.001)”. For the same compound, the “Significance … vs 1 uM LPS” value ([2]; dose 1 nM) was “+++ (+++ indicates p<0.001)”, the “Significance … vs 1 uM LPS” value ([2]; dose 10 nM) was “+++ (+++ indicates p<0.001)” and the “Significance … vs 1 uM LPS” value ([2]; dose 100 nM) was “+++ (+++ indicates p<0.001)”. For the same compound, the “Significance … vs 1 uM LPS” value ([2]; dose 1 μM) was “+++ (+++ indicates p<0.001)”, the “Reversal of LPS-induced cognitive deficit in T-maze (result in words)” value ([3]; ANOVA, Fisher's PLSD, p<0.05, doses as in the value) was “significant reversal of LPS-induced cognitive deficits at 2 mg/kg; also recorded: trending at 8 and 32 mg/kg; also recorded: reversed the LPS-induced cognitive disruption” and the “Spontaneous alternation (%) Mean” value ([3]; Compound 1a 0.5 mg/kg p.o. daily 14 days) was 49%. For the same compound, the “Spontaneous alternation (%) Mean” value ([3]; Compound 1a 0.5 mg/kg p.o. daily 14 days, listed as Cmpd 1a) was 48.6%, the “Recovery (%)” value ([3]; Compound 1a 0.5 mg/kg p.o.) was 17% and the “Spontaneous alternation (%) Mean” value ([3]; Compound 1a 2 mg/kg p.o. daily 14 days) was 59%. The “Spontaneous alternation (%) Mean” value ([3]; Compound 1a 2 mg/kg p.o. daily 14 days, listed as Cmpd 1a) was 58.6%, the “Recovery (%)” value ([3]; Compound 1a 2 mg/kg p.o.) was 56% and the “Spontaneous alternation (%) Mean” value ([3]; Compound 1a 8 mg/kg p.o. daily 14 days) was 56%. For the same compound, the “Spontaneous alternation (%) Mean” value ([3]; Compound 1a 8 mg/kg p.o. daily 14 days, listed as Cmpd 1a) was 56.4%, the “Recovery (%)” value ([3]; Compound 1a 8 mg/kg p.o.) was 47% and the “Spontaneous alternation (%) Mean” value ([3]; Compound 1a 16 mg/kg p.o. daily 14 days) was 51%. The “Spontaneous alternation (%) Mean” value ([3]; Compound 1a 16 mg/kg p.o. daily 14 days, listed as Cmpd 1a) was 51.4%, the “Recovery (%)” value ([3]; Compound 1a 16 mg/kg p.o.) was 28% and the “Spontaneous alternation (%) Mean” value ([3]; Compound 1a 32 mg/kg p.o. daily 14 days) was 56%. For the same compound, the “Spontaneous alternation (%) Mean” value ([3]; Compound 1a 32 mg/kg p.o. daily 14 days, listed as Cmpd 1a) was 55.7% and the “Recovery (%)” value ([3]; Compound 1a 32 mg/kg p.o.) was 44%.
